Each structure is given as a SMILES string. The source made the active and inactive calls.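 Rule for the calls: active = fitted curve reaches 40% activation below the top valid tested dose, in every test run; inconclusive = test runs disagree on the call; inactive = the rest, including effects opposite to the expected direction.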

The first experiment can be described thus: E-selectin inducers in HUVECs, dose response, imaging, HUVEC, cherry-picked samples (AID 977605).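 Note: signal is the share of imaged cells scored positive for E-selectin.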 Conditions: HUVEC E-selectin immunostaining, at 18 µM (top of the series), percent of TNF-alpha response over vehicle.
As to `C[C@@H]1CN([C@H](C)CO)C(=O)c2cccc(NC(=O)CCCCCC(=O)Nc3ccccc3N)c2O[C@H]1CN(C)Cc1ccc2c(c1)OCO2`, the activation is 0.253% (inactive).

The experiment is the same for the next values; noted with them: HUVEC E-selectin immunostaining, at 19.5 µM (top of the series), percent of TNF-alpha response over vehicle.
In the case of `Cc1cccc(NC(=O)CCCN2C(=O)C(c3ccccc3)Oc3cccnc32)c1C` (centres undefined), the activation is 0.811% (inactive).
On to `Cc1ccc(S(=O)(=O)Nc2cc(S(=O)(=O)N3CCCCC3)ccc2N2CCOCC2)cc1`, for which the activation was 0.047% (inactive).
Same read-out and setting: with `Cc1nc(N2CCN(c3ccccn3)CC2)c2c(C)c(C(=O)Nc3ccc(F)cc3Cl)sc2n1` the figure was -0.158% (inactive); with `CCn1nc(CC(=O)O)c2ccccc2c1=O`, 5.69% (inactive); with `COc1ccc(S(=O)(=O)Nc2ccc3c(c2)C(=O)N([C@H](C)CO)C[C@@H](C)[C@H](CN(C)Cc2ccc(Cl)c(Cl)c2)O3)cc1`, -0.125% (inactive).
Same read-out and setting: with `COc1cccc(CNC(=O)CN2C(=O)COc3ccc(S(=O)(=O)N4CCCCCC4)cc32)c1` the figure was -0.081% (inactive); with `C[C@H]1CN([C@@H](C)CO)C(=O)Cc2cc(NC(=O)NC3CCCCC3)ccc2O[C@@H]1CN(C)Cc1ccc(Cl)c(Cl)c1`, 0.088% (inactive); with `CC(C)NC(=O)Nc1cccc2c1O[C@H](CN(C)Cc1ccc(Cl)c(Cl)c1)[C@@H](C)CN([C@@H](C)CO)C2=O`, 0.01% (inactive).
For the compound `C[C@@H]1CN([C@@H](C)CO)C(=O)c2cc(NS(=O)(=O)c3cccs3)ccc2O[C@@H]1CN(C)C(=O)Nc1ccc2c(c1)OCO2`, the activation is -0.086% (inactive).
Same read-out and setting: with `Cc1cccc(CC(=O)c2c[nH]c3ccccc23)c1` the figure was -0.07% (inactive); with `CC(C)N(CCC#N)C(=O)Nc1ccc2c(c1)CCO2`, -0.194% (inactive).
Still for that read-out and setting: with `C[C@@H]1CN([C@H](C)CO)C(=O)Cc2cc(NS(=O)(=O)c3cccs3)ccc2O[C@@H]1CN(C)Cc1ccc(C(=O)Nc2ccccc2N)cc1` the figure was 1.45% (inactive); with `Cc1cc(C)cc(NC(=O)Nc2ccc(-n3ccc(C(F)(F)F)n3)cc2)c1`, 0.075% (inactive).
The same measure, in the same setting: with `CC(C)CCNC(=O)[C@H](Cc1ccccc1)N1Cc2ccccc2C1=O` the figure was 0.131% (inactive).
On to `CCOC(=O)C1(Cc2ccccc2C)CCCN(C(=O)c2ccnn2C)C1` (centres undefined), for which the activation was -0.138% (inactive).
Same read-out and setting: with `CC(=O)Nc1ccc(NC(=O)COc2ccc(Cl)cc2Cl)cc1` the figure was -0.194% (inactive).
`COC(=O)c1sc2nc(SCC(=O)N(C)c3ccccc3)n(N)c(=O)c2c1C`: the activation was 1.12% (inactive).
On the same count and under the same terms, with `CNC[C@@H]1Oc2ccc(NS(C)(=O)=O)cc2C(=O)N([C@@H](C)CO)C[C@@H]1C` the figure was -0.177% (inactive); with `CC(C)NC(=O)Nc1ccc2c(c1)C(=O)N([C@@H](C)CO)C[C@H](C)[C@H](CN(C)Cc1ccc(C(F)(F)F)cc1)O2`, 0.054% (inactive); with `CCOC(=O)c1ccc(N(C(=O)c2ccco2)C(C(=O)NC2CCCCC2)c2ccncc2)cc1` (centres undefined), -0.129% (inactive).
Same read-out and setting: with `Cc1ccccc1CN1CCN(S(=O)(=O)c2ccc(Cl)s2)CC1` the figure was 0.152% (inactive).
On the same count and under the same terms, with `NC(=O)C1CCN(c2nc(-c3ccccc3-c3ccccc3)cs2)CC1` the figure was 0.136% (inactive); with `C[C@H]1CN([C@@H](C)CO)C(=O)c2cccc(NC(=O)c3cnccn3)c2O[C@H]1CN(C)Cc1ccc2c(c1)OCO2`, -0.117% (inactive).
As to `COc1cc(OC)cc(N(C(=O)c2snc(C(N)=O)c2N)C(C(=O)NCC2CCCO2)c2ccc(C)o2)c1` (centres undefined), the activation was -0.112% (inactive).
The same measure, in the same setting: with `Cc1noc(C)c1COc1ccc(C(=O)N2CCC(C)CC2)cc1` the figure was 8.94% (inactive); with `C[C@@H]1CN([C@@H](C)CO)C(=O)Cc2cc(NS(=O)(=O)c3ccc(F)cc3)ccc2O[C@H]1CN(C)S(=O)(=O)c1ccc(Cl)cc1`, -0.127% (inactive); with `C[C@H]1CN([C@@H](C)CO)C(=O)c2cccc(NC(=O)C3CCOCC3)c2O[C@H]1CN(C)Cc1ccc(Oc2ccccc2)cc1`, 0.01% (inactive).
The same measure, in the same setting: with `C[C@H](CO)N1C[C@H](C)[C@H](CN(C)C(=O)Nc2cccc3ccccc23)Oc2ccc(NS(C)(=O)=O)cc2C1=O` the figure was 0.267% (inactive); with `CN(C)C1(CNC(=O)C2CCN(S(=O)(=O)c3cc(Cl)ccc3Cl)CC2)CCCCC1`, -0.207% (inactive); with `Cc1noc(C)c1NC(=O)N(C)C[C@@H]1Oc2ccc(NS(=O)(=O)c3cccs3)cc2CC(=O)N([C@H](C)CO)C[C@H]1C`, -0.165% (inactive).
Take `C[C@@H]1CN([C@H](C)CO)C(=O)c2cc(NC(=O)Cn3cnnn3)ccc2O[C@@H]1CN(C)S(=O)(=O)c1ccccc1`: the activation was 0.017% (inactive).
Still for that read-out and setting: with `C[C@H](CO)N1C[C@H](C)[C@H](CN(C)S(=O)(=O)c2ccc(Cl)cc2)Oc2ccc(NC(=O)NC3CCCCC3)cc2C1=O` the figure was -0.048% (inactive).
The same measure, in the same setting: with `COc1ccc(CN(C)C[C@@H]2Oc3ccc(NC(=O)Nc4ccc(F)cc4)cc3CC(=O)N([C@H](C)CO)C[C@H]2C)cc1` the figure was 0.445% (inactive); with `CC1CN(S(=O)(=O)c2ccc(F)cc2)C(C)N1C(=O)N1CCOCC1` (centres undefined), -0.215% (inactive).
Same read-out and setting: with `COc1ccc(N2CCN(C(=O)c3cccc(NC4=NC5CS(=O)(=O)CC5S4)c3)CC2)cc1` (centres undefined) the figure was -0.136% (inactive); with `Cc1noc(C)c1NC(=O)Nc1cccc2c1O[C@@H](CN(C)Cc1ccc(C(F)(F)F)cc1)[C@H](C)CN([C@@H](C)CO)C2=O`, 0.145% (inactive).
In the case of `C[C@@H]1CN([C@H](C)CO)C(=O)c2cc(NS(=O)(=O)c3ccccc3)ccc2O[C@H]1CN(C)C(=O)NC1CCCCC1`, the activation was 0.289% (inactive).
Same read-out and setting: with `COc1ccc(CN(C)C[C@@H]2Oc3ccc(N(C)C)cc3CC(=O)N([C@@H](C)CO)C[C@@H]2C)cc1` the figure was -0.012% (inactive); with `C[C@H]1CN([C@@H](C)CO)C(=O)c2cc(NC(=O)CCC(F)(F)F)ccc2O[C@@H]1CN(C)Cc1ccc(C(F)(F)F)cc1`, 0.111% (inactive).
Still for that read-out and setting: with `C[C@H](CO)N1C[C@H](C)[C@H](CN(C)C(=O)Nc2ccc(C(F)(F)F)cc2)Oc2ccc(NC(=O)Cn3cnnn3)cc2CC1=O` the figure was 0.063% (inactive); with `C[C@@H]1CN([C@@H](C)CO)C(=O)Cc2cc(NS(C)(=O)=O)ccc2O[C@@H]1CN(C)S(=O)(=O)c1cn(C)cn1`, -0.013% (inactive); with `CC(C)c1ccc(C(=O)Nc2nnc(S(=O)(=O)N3CCCCC3)s2)cc1`, -0.055% (inactive).
As for `CCOC(=O)N1CCN=C1SCc1ccc(Cl)c(Cl)c1`, the activation is 5.27% (inactive).
The same measure, in the same setting: with `C[C@@H]1CN([C@H](C)CO)C(=O)c2cc(NS(C)(=O)=O)ccc2O[C@@H]1CN(C)C(=O)Nc1ccccc1` the figure was -0.094% (inactive); with `C[C@@H]1CN([C@H](C)CO)C(=O)c2cccc(NC(=O)C3CCOCC3)c2O[C@@H]1CN(C)Cc1ccc(Oc2ccccc2)cc1`, 0.031% (inactive); with `CCCCc1c(C)nc2ccc(C)cc2c1SCCC(=O)O`, -0.168% (inactive).
The same measure, in the same setting: with `Cc1noc(C)c1NC(=O)N(C)C[C@H]1Oc2ccc(NS(=O)(=O)c3cccs3)cc2C(=O)N([C@H](C)CO)C[C@H]1C` the figure was -0.05% (inactive); with `COc1ccc(Nc2n[nH]c(N)c2C(N)=O)cc1`, -0.163% (inactive).
Still for that read-out and setting: with `COc1ccccc1N(CC(=O)NCCSc1ccccn1)S(=O)(=O)c1ccccc1` the figure was -0.052% (inactive); with `C[C@@H]1CN([C@@H](C)CO)C(=O)c2cc(N(C)C)ccc2O[C@@H]1CN(C)C(=O)Nc1cccc2ccccc12`, -0.224% (inactive).
In the case of `C[C@H]1CN([C@@H](C)CO)C(=O)Cc2cc(NS(=O)(=O)c3ccc(F)cc3)ccc2O[C@H]1CN(C)S(=O)(=O)c1ccc(Cl)cc1`, the activation was -0.018% (inactive).
On the same count and under the same terms, with `Cc1cc(C)nc(NC(N)=NC(C)c2ccccc2)n1` (centres undefined) the figure was -0.07% (inactive); with `C[C@@H]1CN([C@@H](C)CO)C(=O)c2cccc(NS(=O)(=O)c3ccc(Cl)cc3)c2O[C@H]1CN(C)C(=O)Nc1ccc2c(c1)OCO2`, -0.05% (inactive); with `Cc1noc(C)c1NC(=O)N(C)C[C@@H]1Oc2ccc(NC(=O)c3ccncc3)cc2C(=O)N([C@H](C)CO)C[C@H]1C`, -0.047% (inactive).

Still in this experiment, the particulars now being: HUVEC E-selectin immunostaining, at 21 µM (top of the series), percent of TNF-alpha response over vehicle.
Turning to `CC(C)NC(=O)Nc1ccc2c(c1)CC(=O)N([C@H](C)CO)C[C@H](C)[C@H](CN(C)Cc1ccc(Cl)c(Cl)c1)O2`, the activation was 0.284% (inactive).
Still for that read-out and setting: with `CC(C)NC(=O)Nc1ccc2c(c1)CC(=O)N([C@H](C)CO)C[C@@H](C)[C@@H](CN(C)Cc1ccc(Cl)c(Cl)c1)O2` the figure was 0.047% (inactive).
As for `C[C@@H]1CN([C@H](C)CO)C(=O)c2cc(NS(C)(=O)=O)ccc2O[C@H]1CN(C)C(=O)Nc1ccc2c(c1)OCO2`, the activation is 0.437% (inactive).
Same read-out and setting: with `C[C@@H]1CN([C@H](C)CO)C(=O)c2cccc(NS(=O)(=O)c3cn(C)cn3)c2O[C@H]1CN(C)C(=O)Nc1ccc(F)cc1` the figure was 6% (inactive); with `C[C@H](CO)N1C[C@H](C)[C@H](CN(C)S(C)(=O)=O)Oc2c(NS(C)(=O)=O)cccc2C1=O`, -0.054% (inactive).
Still for that read-out and setting: with `C[C@H]1CN([C@@H](C)CO)C(=O)c2cc(NC(=O)Cn3cnnn3)ccc2O[C@@H]1CN(C)Cc1ccc2c(c1)OCO2` the figure was -0.073% (inactive).
`C[C@@H]1CN([C@H](C)CO)C(=O)Cc2cc(NC(=O)Cc3cn(C)c4ccccc34)ccc2O[C@H]1CN(C)Cc1ccc(C(F)(F)F)cc1`: the activation was 14% (inactive).
Consider `C[C@@H]1CN([C@H](C)CO)C(=O)c2cccc(NS(C)(=O)=O)c2O[C@@H]1CN(C)Cc1ccc(Oc2ccccc2)cc1`, for which the activation is -0.185% (inactive).
`CC(C)NC(=O)N(C)C[C@H]1Oc2ccc(NC(=O)CCC(F)(F)F)cc2CC(=O)N([C@@H](C)CO)C[C@@H]1C`: the activation was -0.117% (inactive).

(Values after PubChem BioAssay AID977605 (Broad Institute, 2014).)
